System: Yes-GFP in MDCK cells
Experiment: Localization of Yes-GFP in MDCK cells (control)
Type: cell-based
Conditions: 10, 20, 30 μM
Procedure: FIGS. 3A and 3B. Impact of cysmethynil treatment on Ras localization and signaling. FIG. 3A. Mislocalization of GFP Ras in cysmethynil treated cells. […] Live cells were imaged on a spinning disk confocal microscope. FIG. 3B. Impact of cysmethynil treatment on EGF-stimulated protein phosphorylation. […] Where indicated, cells were treated with EGF for the final 10 min prior to harvesting. Cell lysates containing equal amounts of protein were resolved on a 13% SDS-polyacrylamide gel and probed with antiphospho-Akt, antiphospho-p42/44 MAPK or anti-β-tubulin antibody as indicated. MDCK cells stably expressing GFP-H-Ras, GFP-K-Ras or GFP-N-Ras were grown on 35 mm coverslip dishes (MatTek Corporation, Ashland, Mass.) treated with poly-D-lysine. MDCK cells expressing […] were prepared by transient transfection of the Yes-GFP construct (McCabe and Berthiaume, Mol Cell Biol 10:3771-3786 (1999)) using Superfect reagent (Quiagen, Valencia, Calif.) following the manufacturer's instructions. […] Cells were imaged 72 h after drug treatment (24 h for transiently transfected cells) on an Olympus IX70 inverted microscope (Melville, N.Y.) with an UltraView spinning-disk confocal (PerkinElmer LAS, Wellesley, Mass.) and a Krypton/Argon laser, 488 nm line, attached to a cooled-CCD camera (Hamamatsu, Bridgewater, N.J.). […]

## CCCCCCCCn1cc(CC(N)=O)c2cc(-c3cccc(C)c3)ccc21 [cysmethynil, 2-[5-(3-methylphenyl)-1-octyl-1H-indol-3-yl]acetamide]
  plasma membrane localization of Yes-GFP: did not affect
